Assay results: ChEMBL document CHEMBL2331210, “New 2-benzylsulfanyl-nicotinic acid based 1,3,4-oxadiazoles: their synthesis and biological evaluation” (2013)
Values after ≈ are worked out from the molar mass of the structure shown.

Key:
Assay type in all cases: functional
[1] = Antitumor activity against human HCC2998 cells assessed as cell growth at 0.1 uM; conditions: HCC 2998, read-out: Activity
NCI-H460 = experiment: Antitumor activity against human NCI-H460 cells assessed as cell growth at 0.1 uM; conditions: read-out: Activity
Pseudomonas aeruginosa = experiment: Antimicrobial activity against Pseudomonas aeruginosa MTCC 2488 assessed as growth inhibition measured after overnight incubation by broth dilution method
A498 = experiment: Antitumor activity against human A498 cells assessed as cell growth at 0.1 uM; conditions: read-out: Activity
Aspergillus niger = experiment: Antimicrobial activity against Aspergillus niger MTCC 282 assessed as growth inhibition measured after overnight incubation by broth dilution method
UO-31 = experiment: Antitumor activity against human UO31 cells assessed as cell growth at 0.1 uM; conditions: read-out: Activity
NCI/ADR-RES = experiment: Antitumor activity against human NCI/ADR-RES cells assessed as cell growth at 0.1 uM; conditions: read-out: Activity
Streptococcus pyogenes = experiment: Antimicrobial activity against Streptococcus pyogenes MTCC 442 assessed as growth inhibition measured after overnight incubation by broth dilution method
MDA-MB-435 = experiment: Antitumor activity against human MDA-MB-435 cells assessed as cell growth at 0.1 uM; conditions: read-out: Activity
CCRF-CEM = experiment: Antitumor activity against human CCRF-CEM cells assessed as cell growth at 0.1 uM; conditions: read-out: Activity
SF-295 = experiment: Antitumor activity against human SF295 cells assessed as cell growth at 0.1 uM; conditions: read-out: Activity
SNB-75 = experiment: Antitumor activity against human SNB75 cells assessed as cell growth at 0.1 uM; conditions: read-out: Activity
MOLT-4 = experiment: Antitumor activity against human MOLT4 cells assessed as cell growth at 0.1 uM; conditions: read-out: Activity
LOX IMVI = experiment: Antitumor activity against human LOXIMVI cells assessed as cell growth at 0.1 uM; conditions: read-out: Activity
SR = experiment: Antitumor activity against human SR cells assessed as cell growth at 0.1 uM; conditions: read-out: Activity
SK-MEL-5 = experiment: Antitumor activity against human SK-MEL-5 cells assessed as cell growth at 0.1 uM; conditions: read-out: Activity
SNB-19 = experiment: Antitumor activity against human SNB19 cells assessed as cell growth at 0.1 uM; conditions: read-out: Activity
HCT-15 = experiment: Antitumor activity against human HCT15 cells assessed as cell growth at 0.1 uM; conditions: read-out: Activity
SF-268 = experiment: Antitumor activity against human SF268 cells assessed as cell growth at 0.1 uM; conditions: read-out: Activity
[2] = Antitumor activity against human Hs 578T cells assessed as cell growth at 0.1 uM; conditions: read-out: Activity
OVCAR-8 = experiment: Antitumor activity against human OVCAR8 cells assessed as cell growth at 0.1 uM; conditions: read-out: Activity
SW-620 = experiment: Antitumor activity against human SW620 cells assessed as cell growth at 0.1 uM; conditions: read-out: Activity
PC-3 = experiment: Antitumor activity against human PC3 cells assessed as cell growth at 0.1 uM; conditions: read-out: Activity
DU-145 = experiment: Antitumor activity against human DU145 cells assessed as cell growth at 0.1 uM; conditions: read-out: Activity
T47D = experiment: Antitumor activity against human T47D cells assessed as cell growth at 0.1 uM; conditions: read-out: Activity
MDA-MB-231 = experiment: Antitumor activity against human MDA-MB-231/ATCC cells assessed as cell growth at 0.1 uM; conditions: read-out: Activity
SF-539 = experiment: Antitumor activity against human SF539 cells assessed as cell growth at 0.1 uM; conditions: read-out: Activity
RPMI-8226 = experiment: Antitumor activity against human RPMI8226 cells assessed as cell growth at 0.1 uM; conditions: read-out: Activity
MDA-MB-468 = experiment: Antitumor activity against human MDA-MB-468 cells assessed as cell growth at 0.1 uM; conditions: read-out: Activity
UACC-257 = experiment: Antitumor activity against human UACC257 cells assessed as cell growth at 0.1 uM; conditions: read-out: Activity
Staphylococcus aureus = experiment: Antimicrobial activity against Staphylococcus aureus MTCC 96 assessed as growth inhibition measured after overnight incubation by broth dilution method
HOP-62 = experiment: Antitumor activity against human HOP62 cells assessed as cell growth at 0.1 uM; conditions: read-out: Activity
Malme-3M = experiment: Antitumor activity against human MALME-3M cells assessed as cell growth at 0.1 uM; conditions: read-out: Activity
OVCAR-3 = experiment: Antitumor activity against human OVCAR3 cells assessed as cell growth at 0.1 uM; conditions: read-out: Activity
Aspergillus clavatus = experiment: Antimicrobial activity against Aspergillus clavatus MTCC 1323 assessed as growth inhibition measured after overnight incubation by broth dilution method
KM12 = experiment: Antitumor activity against human KM12 cells assessed as cell growth at 0.1 uM; conditions: read-out: Activity
[3] = test system: Mycobacterium tuberculosis; experiment: Antitubercular activity against Mycobacterium tuberculosis H37Rv assessed as growth inhibition after 12 to 28 days by L.J. agar MIC method
MCF7 = experiment: Antitumor activity against human MCF7 cells assessed as cell growth at 0.1 uM; conditions: read-out: Activity
TK-10 = experiment: Antitumor activity against human TK10 cells assessed as cell growth at 0.1 uM; conditions: read-out: Activity
UACC-62 = experiment: Antitumor activity against human UACC62 cells assessed as cell growth at 0.1 uM; conditions: read-out: Activity
BT-549 = experiment: Antitumor activity against human BT549 cells assessed as cell growth at 0.1 uM; conditions: read-out: Activity
[4] = Antitumor activity against human EKVX cells assessed as cell growth at 0.1 uM; conditions: read-out: Activity
HL-60 = experiment: Antitumor activity against human HL60(TB) cells assessed as cell growth at 0.1 uM; conditions: read-out: Activity
Candida albicans = experiment: Antimicrobial activity against Candida albicans MTCC 227 assessed as growth inhibition measured after overnight incubation by broth dilution method
SK-MEL-28 = experiment: Antitumor activity against human SK-MEL-28 cells assessed as cell growth at 0.1 uM; conditions: read-out: Activity
HCT-116 = experiment: Antitumor activity against human HCT116 cells assessed as cell growth at 0.1 uM; conditions: read-out: Activity
ACHN = experiment: Antitumor activity against human ACHN cells assessed as cell growth at 0.1 uM; conditions: read-out: Activity
OVCAR-4 = experiment: Antitumor activity against human OVCAR4 cells assessed as cell growth at 0.1 uM; conditions: read-out: Activity
RXF 393 = experiment: Antitumor activity against human RXF393 cells assessed as cell growth at 0.1 uM; conditions: read-out: Activity
SK-OV-3 = experiment: Antitumor activity against human SKOV3 cells assessed as cell growth at 0.1 uM; conditions: read-out: Activity
A549 = experiment: Antitumor activity against human A549/ATCC cells assessed as cell growth at 0.1 uM; conditions: read-out: Activity
SN12C = experiment: Antitumor activity against human SN12C cells assessed as cell growth at 0.1 uM; conditions: read-out: Activity
OVCAR-5 = experiment: Antitumor activity against human OVCAR5 cells assessed as cell growth at 0.1 uM; conditions: read-out: Activity
K562 = experiment: Antitumor activity against human K562 cells assessed as cell growth at 0.1 uM; conditions: read-out: Activity
NCI-H23 = experiment: Antitumor activity against human NCI-H23 cells assessed as cell growth at 0.1 uM; conditions: read-out: Activity
U-251 = experiment: Antitumor activity against human U251 cells assessed as cell growth at 0.1 uM; conditions: read-out: Activity
NCI-H522 = experiment: Antitumor activity against human NCI-H522 cells assessed as cell growth at 0.1 uM; conditions: read-out: Activity
NCI-H226 = experiment: Antitumor activity against human NCI-H226 cells assessed as cell growth at 0.1 uM; conditions: read-out: Activity
HT-29 = experiment: Antitumor activity against human HT-29 cells assessed as cell growth at 0.1 uM; conditions: read-out: Activity
Escherichia coli = experiment: Antimicrobial activity against Escherichia coli MTCC 443 assessed as growth inhibition measured after overnight incubation by broth dilution method
IGROV-1 = experiment: Antitumor activity against human IGROV1 cells assessed as cell growth at 0.1 uM; conditions: read-out: Activity
M14 = experiment: Antitumor activity against human M14 cells assessed as cell growth at 0.1 uM; conditions: read-out: Activity
CAKI-1 = experiment: Antitumor activity against human CAKI-1 cells assessed as cell growth at 0.1 uM; conditions: read-out: Activity

## c1ccc(CSc2ncccc2-c2nnc(SCCN3CCOCC3)o2)cc1
[1]
  growth at 0.1 µM: 116%
NCI-H460
  growth at 0.1 µM: 122%
Pseudomonas aeruginosa
  MIC: 200 µg/mL (≈ 482 µM)
A498
  growth at 0.1 µM: 107%
Aspergillus niger
  MIC: 1000 µg/mL (≈ 2410 µM)
UO-31
  growth at 0.1 µM: 89.4%
NCI/ADR-RES
  growth at 0.1 µM: 107%
Streptococcus pyogenes
  MIC: 200 µg/mL (≈ 482 µM)
MDA-MB-435
  growth at 0.1 µM: 114%
CCRF-CEM
  growth at 0.1 µM: 103%
SF-295
  growth at 0.1 µM: 106%
SNB-75
  growth at 0.1 µM: 79.6%
MOLT-4
  growth at 0.1 µM: 103%
LOX IMVI
  growth at 0.1 µM: 108%
SR
  growth at 0.1 µM: 104%
SK-MEL-5
  growth at 0.1 µM: 102%
SNB-19
  growth at 0.1 µM: 115%
HCT-15
  growth at 0.1 µM: 105%
SF-268
  growth at 0.1 µM: 107%
[2]
  growth at 0.1 µM: 133%
OVCAR-8
  growth at 0.1 µM: 109%
SW-620
  growth at 0.1 µM: 107%
PC-3
  growth at 0.1 µM: 111%
DU-145
  growth at 0.1 µM: 112%
T47D
  growth at 0.1 µM: 101%
MDA-MB-231
  growth at 0.1 µM: 114%
SF-539
  growth at 0.1 µM: 132%
RPMI-8226
  growth at 0.1 µM: 104%
MDA-MB-468
  growth at 0.1 µM: 98.3%
UACC-257
  growth at 0.1 µM: 147%
Staphylococcus aureus
  MIC: 500 µg/mL (≈ 1210 µM)
HOP-62
  growth at 0.1 µM: 116%
Malme-3M
  growth at 0.1 µM: 111%
OVCAR-3
  growth at 0.1 µM: 120%
Aspergillus clavatus
  MIC: 1000 µg/mL (≈ 2410 µM)
KM12
  growth at 0.1 µM: 107%
[3]
  growth inhibition (GI): 99%
[3]; Mycobacterium tuberculosis, H37Rv
  MIC: 25 µg/mL (≈ 60.3 µM)
MCF7
  growth at 0.1 µM: 94.4%
TK-10
  growth at 0.1 µM: 118%
UACC-62
  growth at 0.1 µM: 113%
BT-549
  growth at 0.1 µM: 112%
[4]
  growth at 0.1 µM: 108%
HL-60
  growth at 0.1 µM: 101%
Candida albicans
  MIC: 1000 µg/mL (≈ 2410 µM)
SK-MEL-28
  growth at 0.1 µM: 107%
HCT-116
  growth at 0.1 µM: 108%
ACHN
  growth at 0.1 µM: 124%
OVCAR-4
  growth at 0.1 µM: 106%
RXF 393
  growth at 0.1 µM: 123%
SK-OV-3
  growth at 0.1 µM: 109%
A549
  growth at 0.1 µM: 112%
SN12C
  growth at 0.1 µM: 114%
OVCAR-5
  growth at 0.1 µM: 119%
K562
  growth at 0.1 µM: 117%
NCI-H23
  growth at 0.1 µM: 104%
U-251
  growth at 0.1 µM: 117%
NCI-H522
  growth at 0.1 µM: 105%
NCI-H226
  growth at 0.1 µM: 114%
HT-29
  growth at 0.1 µM: 111%
Escherichia coli
  MIC: 200 µg/mL (≈ 482 µM)
IGROV-1
  growth at 0.1 µM: 98.3%
M14
  growth at 0.1 µM: 108%
CAKI-1
  growth at 0.1 µM: 100%
